In patent US20220380331A1, “TREATMENT OF CONDITIONS OF THE NERVOUS SYSTEM” (priority 2019, published 2022):
“Also recorded” adds a separate entry of the source.

How the values were obtained:
[1] = test system: sensorimotor cortex (M1); assay: Intracortical microstimulation (ICMS) mapping of HL and FL cortical movement representations; format: in vivo, rat
Description: FIG. […]): Perineuronal net inhibitor (PNNi) induces reorganisation of the sensorimotor map (M1) in intact rats. Using intracortical microstimulation (ICMS), mapping of the HL and FL cortical movement representations were used to investigate the functional organisation of the M1 of intact/sham animals after long-term treatment with the prospective plasticity enhancer, […] was performed at stereotaxic coordinates within a right hemisphere craniotomy 5 mm rostral/caudal to bregma (B) (A) 11 weeks post mid-thoracic laminectomy (Sham) or for age-controlled intact rats. Individual ICMS maps were combined to give the representative heat map per group illustrating the percentage of animals for each stereotaxic coordinate where hindlimb (HL; B-D) or forelimb (FL; K-M) movements were able to be elicited. A baseline HL and FL cortical map was generated for Lister Hooded rats (B, K; dotted outlines in B-D, K-M) to compare the functional plasticity of groups with sham surgery (C, L) and with chronic PNNi administration (D, M). Measurements for HL analysis (F-G) are illustrated in E). H) Average area (mm^2) of the HL representation reduced with PNNi treatment. […] Measurements for FL analysis (P-S) are illustrated in O). After PNNi treatment, FL movements were elicited in areas that are not associated with FL or HL movements (see right of the baseline HL map; white dotted outline K-M). […]

[2] = test system: sensorimotor cortical slices; assay: Field potentials and paired-pulse protocols in in vitro sensorimotor cortical slices; set-up: species or system rat
Description: FIG. […]): Forelimb (FL) shifts into hindlimb (HL) area of sensorimotor cortex (M1) after perineuronal net inhibitor (PNNi) and spinal cord injury (SCI) combination. PNNi and/or injury independently enhances cortical plasticity in spinal cord injured rats. Intracortical microstimulation (ICMS) was performed at stereotaxic coordinates within a right hemisphere craniotomy 5 mm rostral/caudal to bregma (B) (A) 11 weeks post-injury. Representative heat maps per group illustrate the percentage of animals for each stereotaxic coordinate where HL (B-C) or FL (D-E) movements were able to be elicited. The Lister Hooded rat baseline HL and FL cortical maps (dotted outlines in B-E) were compared to groups with mid-thoracic SCI (B, D) and/or long-term PNNi administration (C, E) to assess structural plasticity. HL movements were unable to be elicited after SCI (B-C). Measurements for FL analysis (K-N) are illustrated in J). After PNNi and/or SCI, FL movements were elicited in areas that previously elicited HL movements (see right of white dotted outline D-E). […] G: Plot of the average field potential amplitudes vs. stimulus intensity per group. Synaptic responses were elicited in cortical layers II/III by electrical stimuli via bipolar electrodes placed in cortical layers V/VI. Recordings were performed on cortical slice at the following coordinates: ML: 2-3 mm and AP 1.40-1.8 mm caudal to bregma. […]

[3] = test system: mice; details: 6.8-12.8 g/kg in mice continuously for 6 months
[4] = test system: rat; details: in vivo, po; cited from earlier work

Cc1cc(=O)oc2cc(O)ccc12 [PNNi, 4-methylumbelliferone]
percentage of FL movements associated with areas previously eliciting HL movements ([1]; SCI plus long-term PNNi, sham control 4.27±1.56%): 23.9±8.01%
total area able to elicit HL movements ([1]; sham animals, long-term treatment): reduced the total area able to elicit HL movements
intracortical synaptic transmission ([2]; combination of SCI and PNNi treatment): increased intracortical synaptic transmission; also recorded: elevated synaptic transmission
paired-pulse inhibition (PPR) ([2]; sham animals, short and long interstimulus intervals): not altered
lethality and adverse signs [3]: did not show any lethality
lethal dose [4]: 6200 mg/kg
